Measurements reported in ChEMBL document CHEMBL1240367, “Therapy of murine pulmonary aspergillosis with antibody-alliinase conjugates and alliin” (2010).
Values after ≈ are worked out from the molar mass of the structure shown. Blank lines part the entries; values can stand above or below the compound they belong to.

Key:
Type in all cases: functional
[1] = test system: Aspergillus fumigatus; assay: Antifungal activity against swollen Aspergillus fumigatus
[2] = test system: Aspergillus fumigatus; assay: Antifungal activity against resting Aspergillus fumigatus
[3] = test system: Aspergillus fumigatus; assay: Antifungal activity against Aspergillus fumigatus hyphae
[4] = test system: Aspergillus fumigatus; assay: Antifungal activity against Aspergillus fumigatus infected ICR mouse assessed as median survival time at 750 ug, it administered 1 hr post infection repeated on days 4, 6 and 9
[5] = test system: Aspergillus fumigatus; assay: Antifungal activity against Aspergillus fumigatus infected ICR mouse assessed as median survival time at 1 mg/kg, it administered 1 hr post infection repeated on days 4, 6 and 9; conditions: route endotracheal

MIC [3]: 30 µg/mL (≈ 185 µM)
Compound: C=CCS[S+]([O-])CC=C (stereo not given) [ALLICIN]
MFC [1]: 7.5 µg/mL (≈ 46.2 µM)
MFC [2]: 15 µg/mL (≈ 92.4 µM)

Compound: C=CC[S+]([O-])C[C@H](N)C(=O)O (stereo not given in full) [ALLIIN]
MST [4]: 7 days

Compound: C[C@@H]1[C@H](O)[C@@H](C)/C=C/C=C/C=C/C=C/C=C/C=C/C=C/[C@H](O[C@@H]2O[C@H](C)[C@@H](O)[C@H](N)[C@@H]2O)C[C@@H]2O[C@](O)(C[C@@H](O)C[C@@H](O)[C@H](O)CC[C@@H](O)C[C@@H](O)CC(=O)O[C@H]1C)C[C@H](O)[C@H]2C(=O)O [AMPHOTERICIN B]
MST [5]: 18 days
